Results as given in ChEMBL document CHEMBL4049409, “Structure-based discovery of LpxC inhibitors” (Bioorg Med Chem Lett, 2017).
Values after ≈ are worked out from the molar mass of the structure shown.

Assays:
[1] = target: T1, UDP-3-O-acyl-N-acetylglucosamine deacetylase (Pseudomonas aeruginosa (strain ATCC 15692 / PAO1 / 1C / PRS 101 / LMG12228), UniProt P47205); assay: Inhibition of LpxC in Pseudomonas aeruginosa isolate 44 ATCC 27853
T1 sequence (P47205 whole entry): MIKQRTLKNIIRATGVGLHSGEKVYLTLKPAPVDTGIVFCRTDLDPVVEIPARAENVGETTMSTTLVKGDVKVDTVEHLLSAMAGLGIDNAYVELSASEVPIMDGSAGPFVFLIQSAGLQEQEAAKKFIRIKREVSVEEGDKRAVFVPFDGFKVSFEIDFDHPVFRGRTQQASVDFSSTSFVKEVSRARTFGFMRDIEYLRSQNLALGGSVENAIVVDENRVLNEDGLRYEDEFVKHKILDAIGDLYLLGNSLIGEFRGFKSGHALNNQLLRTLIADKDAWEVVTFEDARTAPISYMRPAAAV

Pseudomonas aeruginosa [2] = assay: Antibacterial activity against Pseudomonas aeruginosa isolate 839 harboring mexAB-oprM deletion mutant; type: functional
Klebsiella pneumoniae = assay: Antibacterial activity against Klebsiella pneumoniae isolate 21 ATCC 4352; type: functional
Escherichia coli = assay: Antibacterial activity against Escherichia coli isolate 35 ATCC 25922; type: functional
[3] = Inhibition of LpxC in Klebsiella pneumoniae isolate 21 ATCC 4352
[4] = target: T2, UDP-3-O-acyl-N-acetylglucosamine deacetylase (Escherichia coli K-12, UniProt P0A725); assay: Inhibition of LpxC in Escherichia coli isolate 35 ATCC 25922; design: species or system Escherichia coli ATCC 25922
T2 sequence (P0A725 whole entry): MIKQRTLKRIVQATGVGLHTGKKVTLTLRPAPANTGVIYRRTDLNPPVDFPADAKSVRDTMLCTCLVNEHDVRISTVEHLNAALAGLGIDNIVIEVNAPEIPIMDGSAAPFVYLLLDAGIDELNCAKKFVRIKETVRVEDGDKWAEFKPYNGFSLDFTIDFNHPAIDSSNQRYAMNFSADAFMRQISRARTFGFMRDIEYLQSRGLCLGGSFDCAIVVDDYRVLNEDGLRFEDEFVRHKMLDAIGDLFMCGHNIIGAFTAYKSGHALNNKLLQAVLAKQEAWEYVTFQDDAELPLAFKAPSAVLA

Pseudomonas aeruginosa [5] = assay: Antibacterial activity against Pseudomonas aeruginosa isolate 44 ATCC 27853; type: functional
[6] = Inhibition of LpxC in Acinetobacter baumannii focus ID 961025
Acinetobacter baumannii = assay: Antibacterial activity against Acinetobacter baumannii focus ID 961025; type: functional
Pseudomonas aeruginosa [7] = assay: Antibacterial activity against Pseudomonas aeruginosa isolate 847; type: functional

Compound | IC50 [1] | MIC (Pseudomonas aeruginosa [2]) | MIC (Klebsiella pneumoniae) | MIC (Escherichia coli) | IC50 [3] | IC50 [4] | MIC (Pseudomonas aeruginosa [5]) | IC50 [6] | MIC (Acinetobacter baumannii) | MIC (Pseudomonas aeruginosa [7])
C[C@@H](O)[C@H](N[C@H]1CCc2cc(C#Cc3ccc(CN4CCN(CCO)CC4)cc3)ccc21)C(=O)NO | 14 nM | 1 µg/mL (≈ 2.03 µM) | < 0.125 µg/mL | 2 µg/mL (≈ 4.06 µM) | 21 nM | 20 nM | 4 µg/mL (≈ 8.12 µM) |  |  | 
C[C@@H](O)[C@H](NC1CCCc2cc(C#Cc3ccccc3)ccc21)C(=O)NO (stereo not given in full) | 5 nM |  | 0.25 µg/mL (≈ 0.686 µM) | 1 µg/mL (≈ 2.74 µM) | 0.2 nM | 1 nM | 32 µg/mL (≈ 87.8 µM) | 40 nM | 16 µg/mL (≈ 43.9 µM) | 
C[C@@H](O)[C@H](NC1CCOc2cc(C#Cc3ccccc3)ccc21)C(=O)NO (stereo not given in full) | 13 nM |  | < 0.125 µg/mL | 2 µg/mL (≈ 5.46 µM) | 8 nM | 11 nM | 128 µg/mL (≈ 349 µM) | 36 nM | 32 µg/mL (≈ 87.3 µM) | 
C[C@@H](O)[C@H](N[C@H]1CCc2cc(C#Cc3ccc(CN4CC(O)C4)cc3)ccc21)C(=O)NO | 63 nM | 0.5 µg/mL (≈ 1.15 µM) | 0.125 µg/mL (≈ 0.287 µM) | 4 µg/mL (≈ 9.18 µM) |  | 127 nM | 4 µg/mL (≈ 9.18 µM) |  |  | 
CCC(N[C@H](C(=O)NO)[C@@H](C)O)c1ccc(C#Cc2ccccc2)cc1 (stereo not given in full) | 214 nM |  | 2 µg/mL (≈ 5.67 µM) | 4 µg/mL (≈ 11.3 µM) | 120 nM | 215 nM | > 64 µg/mL | 566 nM | > 64 µg/mL | 
C[C@@H](O)[C@H](NC1CCN(C)c2cc(C#Cc3ccc(CN4CCOCC4)cc3)ccc21)C(=O)NO (stereo not given in full) | 18 nM |  | 0.125 µg/mL (≈ 0.261 µM) | 2 µg/mL (≈ 4.18 µM) | 2 nM | 2 nM | > 32 µg/mL | 331 nM | > 32 µg/mL | 
C[C@@H](O)[C@H](N[C@H]1CCc2cc(C#Cc3ccc(Cn4ccnc4CCO)cc3)ccc21)C(=O)NO | 5 nM | 0.125 µg/mL (≈ 0.263 µM) |  | 1 µg/mL (≈ 2.11 µM) | 3 nM | 5 nM | 4 µg/mL (≈ 8.43 µM) |  |  | 4 µg/mL (≈ 8.43 µM)
C[C@@H](O)[C@H](N[C@H]1CCc2cc(C#Cc3ccc(CN4CC[C@@H](O)C4)cc3)ccc21)C(=O)NO | 26 nM | 1 µg/mL (≈ 2.22 µM) | 0.5 µg/mL (≈ 1.11 µM) | 2 µg/mL (≈ 4.45 µM) | 38 nM | 51 nM | 8 µg/mL (≈ 17.8 µM) |  |  | 
C[C@@H](O)[C@H](NC1CCCCc2cc(C#Cc3ccccc3)ccc21)C(=O)NO (stereo not given in full) | 333 nM |  | 2 µg/mL (≈ 5.28 µM) | 16 µg/mL (≈ 42.3 µM) | 72 nM | 109 nM | > 128 µg/mL | 1160 nM | > 128 µg/mL | 
C[C@@H](O)[C@H](NC1CCCc2cc(C#Cc3ccc(CN4CCOCC4)cc3)ccc21)C(=O)NO (stereo not given in full) | 2 nM |  | < 0.125 µg/mL | 0.25 µg/mL (≈ 0.539 µM) | 0.2 nM | 0.3 nM | 32 µg/mL (≈ 69 µM) | 80 nM | 128 µg/mL (≈ 276 µM) | 
C[C@@H](O)[C@H](NC1CCN(C)c2cc(C#Cc3ccccc3)ccc21)C(=O)NO (stereo not given in full) | 15 nM |  | 1 µg/mL (≈ 2.64 µM) | 8 µg/mL (≈ 21.1 µM) | 4 nM | 2 nM | > 128 µg/mL | 124 nM | > 128 µg/mL | 
CC(N[C@H](C(=O)NO)[C@@H](C)O)c1ccc(C#Cc2ccccc2)cc1 (stereo not given in full) | 72 nM |  | 1 µg/mL (≈ 2.96 µM) | 4 µg/mL (≈ 11.8 µM) | 64 nM | 96 nM | > 64 µg/mL | 160 nM | 64 µg/mL (≈ 189 µM) | 
C[C@@H](O)[C@H](N[C@H]1CCc2cc(C#Cc3ccc(CN4CCCCC4)cc3)ccc21)C(=O)NO | 10 nM | 2 µg/mL (≈ 4.47 µM) | 0.5 µg/mL (≈ 1.12 µM) | 0.5 µg/mL (≈ 1.12 µM) | 5 nM | 10 nM | 16 µg/mL (≈ 35.7 µM) |  |  | 
C[C@@H](O)[C@H](NC1CCc2cc(C#Cc3ccc(CN4CCOCC4)cc3)ccc21)C(=O)NO (stereo not given in full) | 4 nM |  | 0.125 µg/mL (≈ 0.278 µM) | 0.25 µg/mL (≈ 0.556 µM) | 2 nM | 2 nM | 8 µg/mL (≈ 17.8 µM) | 382 nM | > 64 µg/mL | 
Cc1nccn1Cc1ccc(C#Cc2ccc3c(c2)CC[C@@H]3N[C@H](C(=O)NO)[C@@H](C)O)cc1 | 4 nM | 0.25 µg/mL (≈ 0.562 µM) | 0.06 µg/mL (≈ 0.135 µM) | 0.25 µg/mL (≈ 0.562 µM) | 2 nM | 1 nM | 8 µg/mL (≈ 18 µM) |  |  | 
COC1CCN(Cc2ccc(C#Cc3ccc4c(c3)CC[C@@H]4N[C@H](C(=O)NO)[C@@H](C)O)cc2)CC1 | 3 nM | 1 µg/mL (≈ 2.09 µM) | 0.06 µg/mL (≈ 0.126 µM) | 0.5 µg/mL (≈ 1.05 µM) | 6 nM | 5 nM | 8 µg/mL (≈ 16.8 µM) |  |  | 
